# Assay results: patent publication US7132446B1, “Isolation of a dimer di-gallate, a potent endothelium-dependent vasorelaxing compound” (University of South Florida, priority 2001, dated 2006)
# Columns and labels:
# blood vessels in vitro = conditions: background statements; cited from earlier work
# [1] = tested on: endothelium-denuded rat aortic rings; experiment: Relaxation bioassay, endothelium-denuded aortic rings; format: cell-based; conditions: de-endothelialized rings
# Procedure: Aortic ring preparation and bioassay. The procedure for preparation of rat aortic rings and general aspects of determining mechanical activity has been previously described. Briefly, male Sprague-Dawley rats (200–225 g) were euthanized with an overdose of sodium pentobarbital (100 mg/kg, i.p.), bled, and the thoracic aorta excised, cleaned, and rings (3–4 mm in length) were cut, taking care not to disturb the endothelium. In some instances the endothelium was deliberately removed by gently rubbing the lumen with a curved forceps. The rings were suspended in tissue baths containing a physiologic salt solution (PSS) with the following composition (in millimolar): 118 NaCl; 4.7 KCl; 25 NaHCO3; 1.2 MgSO4; 1.2 NaH2PO4; 0.026 EDTA; 1.5 CaCl2; 11 glucose. The solution was bubbled continuously with O2/CO2 (95%/5%), and maintained at 37° C. Activity was recorded on a Grass polygraph. […] EDR activity of HPLC peaks was determined by first contracting aortic rings with phenylephrine, as above, then generating concentration-response curves for relaxation by adding each peak sample to the bath, beginning with a sub-threshold concentration and adding increasing amounts until maximum relaxation is achieved. […]
# [2] = tested on: phenylephrine-contracted endothelium-intact rat aortic rings; experiment: Endothelium-dependent relaxation (EDR) bioassay, endothelium-intact aortic rings; format: cell-based; conditions: for threshold concentration (for 10% relaxation): intact aortic rings; for EDR activity (relaxation of endothelium-intact rings): phenylephrine-contracted endothelium-intact rings
# Procedure: Aortic ring preparation and bioassay. The procedure for preparation of rat aortic rings and general aspects of determining mechanical activity has been previously described. Briefly, male Sprague-Dawley rats (200–225 g) were euthanized with an overdose of sodium pentobarbital (100 mg/kg, i.p.), bled, and the thoracic aorta excised, cleaned, and rings (3–4 mm in length) were cut, taking care not to disturb the endothelium. In some instances the endothelium was deliberately removed by gently rubbing the lumen with a curved forceps. The rings were suspended in tissue baths containing a physiologic salt solution (PSS) with the following composition (in millimolar): 118 NaCl; 4.7 KCl; 25 NaHCO3; 1.2 MgSO4; 1.2 NaH2PO4; 0.026 EDTA; 1.5 CaCl2; 11 glucose. The solution was bubbled continuously with O2/CO2 (95%/5%), and maintained at 37° C. Activity was recorded on a Grass polygraph. After equilibration for at least 1 hr under 1.5 g of tension, tissues were contracted submaximally (approximately 80% of Emax) with phenylephrine (˜1 μM), and then 3 μM acetylcholine, a known EDR-active compound, was added to the bath to test for intactness of the endothelium. Rings were washed with PSS three times over the next 45 min. prior to the next sequence. EDR activity of HPLC peaks was determined by first contracting aortic rings with phenylephrine, as above, then generating concentration-response curves for relaxation by adding each peak sample to the bath, beginning with a sub-threshold concentration and adding increasing amounts until maximum relaxation is achieved. To test for endothelium-dependence, denuded aortic rings were used. Successful endothelium removal was established by a lack of relaxation response to 3 μM acetylcholine. […] Statistical methods. Data are presented as means±SEM. EC50s were determined from concentration-response curves, utilizing nonlinear regression analysis software (GraphPad Prizm, San Diego, Calif.).
smiles,measurement,setting,value
Oc1cc(O)c2c(c1)OC(c1ccc(O)c(O)c1)C(O)C2O (stereo not drawn) [leucocyanidol],EDR activity (previous studies),blood vessels in vitro,some activity at lower concentrations
"O=C(O[C@@H]1[C@@H](c2c(O)cc(O)c3c2O[C@H](c2ccc(O)c(O)c2)[C@H](OC(=O)c2cc(O)c(O)c(O)c2)C3)c2c(O)cc(O)cc2O[C@@H]1c1ccc(O)c(O)c1)c1cc(O)c(O)c(O)c1 (single isomer, unassigned; peak f2) [peak F2, epicatechin-galloyl-epicatechin-gallate]",relaxing activity on endothelium-denuded rings,[1],no effect
same,threshold concentration (for 10% relaxation),[2],approximately 0.35 μg/ml
same,threshold concentration (for 10% relaxation),[2]; molar value printed in brackets,~0.4 µM
same,EDR activity (relaxation of endothelium-intact rings),[2],relaxed
same,EDR activity (relaxation of endothelium-intact rings),[2]; listed as dimer digallate,substantial EDR activity
same,EC50,[2]; phenylephrine-contracted intact rings,760 nM
same,EC50 for relaxation of intact aortic rings,"[2]; phenylephrine-contracted intact rings, mean±SEM, n=4 rats (3–6 concentration-response curves/rat aorta)",0.67 ± 0.04 µg/mL
"N=C(N)NCCC[C@H](N)C(=O)O [L-arginine, reference compound]",effect on the B2-di-gallate-induced relaxation of intact rings,"[2]; added to the bath after peak F2, L-arginine added after NNA",caused the tissue to relax once again
